For orientation: GI50 means the concentration that inhibits growth by half. By TGI is commonly meant the concentration giving total growth inhibition. A lower TGI goes with greater sensitivity of the cells.

Experimental findings from PubChem BioAssay (NCI) are described below.

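The compound was tested at five concentrations on cells cultured in 96-well plates, with a 48-hour exposure period. GI50 = concentration required for 50% inhibition of growth. TGI marks complete inhibition of growth.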

Among the test systems are M14 melanoma; CCRF-CEM leukemia; NCI-H23 lung; ACHN renal; SNB-75 CNS; MALME-3M melanoma; RPMI-8226 leukemia; NCI-H522 lung.
Common to all, as to assay: DTP human tumour cell line panel, 48 h

For the compound `CCN(CC)c1ccc(C(=N)c2ccc(N(C)C)cc2)cc1`, the GI50 in the experiment on M14 melanoma is 0.167 µM; in the experiment on CCRF-CEM leukemia, 1.96 µM; with NCI-H23 lung, 0.218 µM; in the experiment with ACHN renal it was 2.34 µM; in the experiment with SNB-75 CNS, 2.26 µM; in the experiment with MALME-3M melanoma, 0.205 µM. The TGI in the experiment with M14 melanoma was 2.06 µM; in the experiment with CCRF-CEM leukemia it was 97.8 µM; in the experiment on NCI-H23 lung, 3.19 µM; in the experiment with ACHN renal, 12 µM; in the experiment on SNB-75 CNS it was more than 21.7 µM; in the experiment with MALME-3M melanoma it was 4.76 µM.

Consider `CN(C(=O)c1ccncc1)c1ccccc1`, for which the TGI in the experiment on M14 melanoma, with NCI-H23 lung, in the experiment with ACHN renal, in the experiment on RPMI-8226 leukemia, with SNB-75 CNS and with MALME-3M melanoma was more than 100 µM throughout. Moreover, the TGI with NCI-H522 lung was more than 100 µM.

Regarding `CSC1(SC2=NCCN2)SC2(NCCN2)S1`, the TGI in the experiment on M14 melanoma amounted to 44.3 µM; in the experiment with CCRF-CEM leukemia, 26.1 µM; in the experiment with NCI-H23 lung, 33.4 µM; with ACHN renal, 33.2 µM; in the experiment on RPMI-8226 leukemia it was 13.4 µM; in the experiment with SNB-75 CNS, 32.2 µM. Moreover, the figures for the TGI in the experiment on MALME-3M melanoma and in the experiment with NCI-H522 lung were 34.3 µM and 27.1 µM, respectively.

For the compound `S=C(Nc1cc(Cl)c(Cl)cc1Cl)SCc1ccccc1`, the TGI is more than 100 µM with M14 melanoma; 45.3 µM with NCI-H23 lung; 42.7 µM in the experiment with ACHN renal; 46.5 µM with RPMI-8226 leukemia; more than 100 µM with SNB-75 CNS; 59.3 µM in the experiment on MALME-3M melanoma. In the experiment with NCI-H522 lung, the TGI was 59.5 µM.

For `COc1ccc(-c2nn(-c3cccc(Cl)c3)cc2-c2cc(-c3ccccc3)nc(N)n2)cc1`, the GI50 in the experiment with M14 melanoma is 2.69 µM; in the experiment with CCRF-CEM leukemia, 2.13 µM; in the experiment on NCI-H23 lung it was 2.83 µM; in the experiment with ACHN renal, 4.58 µM; with RPMI-8226 leukemia, 2.65 µM; with SNB-75 CNS it was 4.32 µM. The GI50 in the experiment on MALME-3M melanoma was 8.95 µM; in the experiment on NCI-H522 lung, 1.88 µM. Further, the concentration for total growth inhibition (TGI) was found to be 13.2 µM in the experiment with M14 melanoma; 6.63 µM with CCRF-CEM leukemia; 10.4 µM with NCI-H23 lung; 15.8 µM with ACHN renal; 9.17 µM with RPMI-8226 leukemia; 22 µM in the experiment with SNB-75 CNS. The figures for the TGI with MALME-3M melanoma and with NCI-H522 lung were 31.8 µM and 3.53 µM, respectively.

On to `c1ccc(CSc2nnc3c4ccccc4c4ccccc4c3n2)cc1`, for which the concentration for total growth inhibition (TGI) was more than 100 µM in the experiment on M14 melanoma; 72.5 µM with CCRF-CEM leukemia; more than 100 µM with NCI-H23 lung; more than 100 µM in the experiment on ACHN renal; more than 100 µM with RPMI-8226 leukemia; 21.6 µM with SNB-75 CNS. Further, the TGI was more than 100 µM in the experiment with MALME-3M melanoma and 97.9 µM in the experiment with NCI-H522 lung.

As to `Clc1nc(Cl)c(-c2ccccc2)c(Cl)n1`, the TGI in the experiment on M14 melanoma was 3.33 µM; with CCRF-CEM leukemia it was 8.28 µM; in the experiment on NCI-H23 lung, 12 µM; with RPMI-8226 leukemia it was 6.16 µM; in the experiment with SNB-75 CNS, more than 54.8 µM; in the experiment on MALME-3M melanoma, 4.38 µM. In the experiment on NCI-H522 lung, the TGI turned out to be 3.24 µM.

As for `Cn1cc(-c2ccc(-c3cn(C)c4ccc(Cl)cc34)s2)c2cc(Cl)ccc21`, the GI50 in the experiment on M14 melanoma, with CCRF-CEM leukemia, in the experiment on NCI-H23 lung, with ACHN renal, with RPMI-8226 leukemia and with SNB-75 CNS was more than 100 µM in each case. In addition, the GI50 in the experiment with MALME-3M melanoma and in the experiment on NCI-H522 lung was more than 100 µM each time. The TGI with M14 melanoma, in the experiment with CCRF-CEM leukemia, in the experiment on NCI-H23 lung, in the experiment on ACHN renal, in the experiment with RPMI-8226 leukemia and with SNB-75 CNS was more than 100 µM throughout. The TGI in the experiment with MALME-3M melanoma and in the experiment on NCI-H522 lung was more than 100 µM in each case.

On to `O=C(CCCSc1nc(-c2ccccc2)cc(-c2ccc(Cl)cc2)n1)NO`, for which the GI50 in the experiment on CCRF-CEM leukemia is 0.882 µM; in the experiment on NCI-H23 lung it was 2.44 µM; in the experiment on ACHN renal it was 0.399 µM; with RPMI-8226 leukemia, 1.65 µM; in the experiment on SNB-75 CNS, 2.08 µM; with MALME-3M melanoma, 2.7 µM. In addition, the GI50 in the experiment with NCI-H522 lung was 1.96 µM. Moreover, the total growth inhibition concentration (TGI) in the experiment on CCRF-CEM leukemia turned out to be 13 µM; with NCI-H23 lung, 10.6 µM; in the experiment on ACHN renal, 4.38 µM; in the experiment with RPMI-8226 leukemia, 8.42 µM; with SNB-75 CNS it was 10.4 µM; in the experiment on MALME-3M melanoma, 12.1 µM. Also, the TGI with NCI-H522 lung is 10.4 µM.

With `CCCOC(=O)CCn1c(SC)nc2[nH]cc(-c3ccccc3)c2c1=O`, the GI50 is 15.6 µM in the experiment with M14 melanoma; 1.37 µM in the experiment with CCRF-CEM leukemia; 8.34 µM with NCI-H23 lung; 22.2 µM in the experiment with ACHN renal; 12.7 µM in the experiment with RPMI-8226 leukemia; 13.4 µM in the experiment on SNB-75 CNS. Also, the GI50 was 18.5 µM with MALME-3M melanoma and 11 µM in the experiment with NCI-H522 lung. The TGI in the experiment on M14 melanoma is more than 100 µM; in the experiment on CCRF-CEM leukemia it was 35.1 µM; in the experiment on NCI-H23 lung it was 43 µM; with ACHN renal it was 77.2 µM; with RPMI-8226 leukemia it was 33.6 µM; with SNB-75 CNS, 57.6 µM. Moreover, the TGI in the experiment with MALME-3M melanoma stood at 51.8 µM; with NCI-H522 lung it was 32.5 µM.

For the compound `O=C(CN(/C=C/C(=O)C(F)(F)F)c1ccccc1)c1ccc(Cl)c(Cl)c1`, the GI50 is 11.2 µM with CCRF-CEM leukemia; 13.6 µM with NCI-H23 lung; 14.7 µM with ACHN renal; 13.9 µM with RPMI-8226 leukemia; 12.8 µM in the experiment with MALME-3M melanoma; 11.1 µM in the experiment on NCI-H522 lung. Also, the TGI in the experiment on CCRF-CEM leukemia was 29.2 µM; with NCI-H23 lung, 26.7 µM; in the experiment on ACHN renal, 27.9 µM; with RPMI-8226 leukemia, 40.2 µM; with MALME-3M melanoma, 32.1 µM; with NCI-H522 lung, 25 µM.

Consider `Cc1c(Cl)cccc1NC1=C(Cl)C(=O)N(Cc2ccccc2)C1=O`, for which the GI50 in the experiment with M14 melanoma is 10.2 µM; with CCRF-CEM leukemia it was 0.392 µM; in the experiment on NCI-H23 lung, 10.8 µM; in the experiment with ACHN renal it was 1.29 µM; in the experiment on RPMI-8226 leukemia it was 1.25 µM; in the experiment with NCI-H522 lung it was 17 µM. Also, the TGI with M14 melanoma was 22 µM; in the experiment with CCRF-CEM leukemia, 12.5 µM; in the experiment on NCI-H23 lung, 22.7 µM; in the experiment with ACHN renal, 8.92 µM; in the experiment with RPMI-8226 leukemia it was 26.7 µM; in the experiment on NCI-H522 lung it was more than 100 µM.
